{
  "source": "patent US20250051324A1",
  "about": "“PARP INHIBITOR, PHARMACEUTICAL COMPOSITION COMPRISING SAME, AND USE THEREOF” (KEYTHERA (SUZHOU) BIO-PHARMACEUTICALS CO., LIMITED, priority 2021, published 2025)",
  "key": {"[1]": {"test_system": "human breast cancer (MDA-MB-436) cell line", "assay": "Mouse CDX tumor model (MDA-MB-436 subcutaneous xenograft)", "format": "in vivo", "settings": "for Tumor Growth Inhibition Rate (TGI): 28 days", "method": "Test Objective: The efficacy of the compounds was evaluated in a subcutaneous xenograft model of human breast cancer (MDA-MB-436) cell line in mice.\nTest Compounds: Olaparib, Compound 1\nExperimental Animals: Female NOD SCID mice, 4-5 weeks old, purchased from Nanjing Jicui.\nHousing and Management: The experimental animals were housed in SPF-grade, temperature- and humidity-controlled clean rooms, using individually ventilated cages (IVC) with no more than 5 mice per cage. Temperature/humidity was controlled within the range of (23±3)° C./40-70%. Feed and water: SPF-grade mouse feed, sterilized by cobalt-60 irradiation. Drinking water was ultrafiltered and autoclaved. Animals had free access to sterile food and water. Animal identification: ear tags.\nTumor Cell Line and Tumor Model: MDA-MB-436 cells (Nanjing Cobioer Biotechnology Co., Ltd., Cat. No: CBP60385) were cultured in vitro in DMEM complete medium containing 10% fetal bovine serum, 1% penicillin-streptomycin, 1% insulin, and 16 μg/mL glutathione (37° C., 5% CO2). When the cells met the requirements for the in vivo efficacy experiment, they were collected, counted, and prepared into a PBS cell suspension. Each mouse (5-6 weeks old NOD SCID) was inoculated subcutaneously on the right flank with 0.9×10^7 cells. Tumor volume was measured and calculated three times a week after inoculation. When the tumor volume reached approximately 200-300 mm^3, the mice were grouped for administration.\nExperimental Groups: The experiment was divided into the following groups: vehicle control group; Olaparib 100 mg/kg group; Compound 1 0.1 mg/kg group; Compound 1 0.3 mg/kg group; and Compound 1 1.0 mg/kg group. All groups were administered orally by gavage once daily. […] After 28 days of administration, the tumor volume was used to calculate the tumor growth inhibition rate (TGI %), and the tumor inhibition effect was statistically analyzed using software such as Excel, etc."}, "PARP2": {"target": "PARP2 (Homo sapiens (Human), UniProt Q9UGN5)", "sequence (Q9UGN5 whole entry)": "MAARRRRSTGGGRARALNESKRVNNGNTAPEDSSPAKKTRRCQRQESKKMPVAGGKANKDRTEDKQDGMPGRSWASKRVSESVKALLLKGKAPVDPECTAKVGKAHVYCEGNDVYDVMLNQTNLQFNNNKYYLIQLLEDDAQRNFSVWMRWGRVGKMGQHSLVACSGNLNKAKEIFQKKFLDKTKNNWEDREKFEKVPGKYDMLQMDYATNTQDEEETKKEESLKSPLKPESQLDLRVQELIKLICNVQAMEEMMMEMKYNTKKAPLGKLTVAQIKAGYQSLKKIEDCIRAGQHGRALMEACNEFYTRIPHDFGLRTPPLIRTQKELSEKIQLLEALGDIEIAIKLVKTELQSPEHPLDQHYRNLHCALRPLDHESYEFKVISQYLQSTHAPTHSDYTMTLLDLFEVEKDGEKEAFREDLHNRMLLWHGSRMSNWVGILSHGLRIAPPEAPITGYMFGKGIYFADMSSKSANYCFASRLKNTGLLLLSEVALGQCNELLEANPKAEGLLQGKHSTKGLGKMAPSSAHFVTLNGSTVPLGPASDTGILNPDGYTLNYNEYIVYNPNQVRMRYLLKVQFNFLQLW", "assay": "PARP2 trapping assay", "format": "biochemical", "settings": "read-out: Inhibitory Effect on PARP2 Trapping IC50", "method": "[table] […] 1. A 4× enzyme reaction mixture, comprising PARP1, PARP2, and GST-Tb antibody, was prepared with the buffer and 4 μL of the enzyme reaction mixture was added to a 384-well plate. 2. A 4×PARP1 and PARP2 probe reaction mixture was prepared with the buffer and 4 μL of the probe reaction mixture was added to the 384-well plate. 3. A series of gradient-diluted compounds were prepared and 4 μL of the diluted compounds were added to the 384-well plate, and incubated at room temperature for 45 minutes. 4. After incubation, 4 μL of 4×NAD reaction mixture was added to the 384-well plate and incubated at room temperature for 10 minutes. 5. After incubation, the plate was read using a plate reader. 6. Data Analysis: The percentage inhibition rate was calculated as follows: Inhibition Rate (%)=(Reading of Compound Group−Reading of Blank Group)/(Reading of Vehicle Control Group−Reading of Blank Group)."}, "[2]": {"assay": "Liver microsome metabolism assay", "settings": "CD1, mouse, liver microsomes", "experimental": "Experimental Materials: Mixed CD1 mouse liver microsomal enzyme protein was purchased from Xenotech (#M1000), and NADPH was purchased from Abmole (#M9076).\n1. To the liver microsomal enzyme reaction system, 210 μL of phosphate buffer was added, followed by 12.5 μL of liver microsomal enzyme at a concentration of 20 mg/mL. Then, 25 μL of NADPH at a concentration of 10 mM was added to the system, mixed well, and incubated in a 37° C. water bath with shaking for 10 minutes.\n2. The test compound, stored at a concentration of 10 mM, was diluted to 100 μM with DMSO. Then, 2.5 μL of the diluted test compound was added to the reaction system, mixed well, and incubated in a 37° C. water bath with shaking.\n3. At 0.5, 5, 10, 20, 30, and 60 minutes, 25 μL of the enzyme reaction mixture was taken and added to 125 μL of cold acetonitrile containing dexamethasone as an internal standard. The mixture was centrifuged at 4000 g for 20 minutes, and the supernatant was mixed with an equal volume of distilled water. The mixed sample was then subjected to quantitative analysis by liquid chromatography-mass spectrometry.\n4. Calculation of in vitro drug metabolism half-life and drug clearance rate:\nt1/2=−0.693/k. (k: the slope of the linear regression of the natural logarithm of the percentage of drug remaining versus incubation time)."}, "[3]": {"test_system": "MDA-MB-436 breast cancer cells", "assay": "Cell proliferation assay, MDA-MB-436", "format": "cell-based", "settings": "Homo sapiens, MDA-MB-436, 168 h, read-out: MDA-MB-436 Cell IC50", "summary_of_the_method": "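Cells seeded 16 h, then exposed to a 9-point 1:3 compound dilution series for 7 days at 37° C., 5% CO2; DMSO-matched and cell-free controls. Viability by CellCounting-Lite luminescence; IC50 from log concentration versus % inhibition.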"}, "[4]": {"test_system": "UWB1.289 ovarian cancer cells", "assay": "Cell proliferation assay, UWB1.289", "format": "cell-based", "settings": "UWB1289, 168 h, read-out: UWB1.289 Cell IC50", "method": "Experimental Materials: MDA-MB-436 or UWB1.289 cell lines were purchased from Cobioer Biosciences Co. Ltd. (Nanjing, China). The STR identification results were a complete match, and mycoplasma testing was negative. MDA-MB-436 cells were cultured in DMEM complete medium containing 10% fetal bovine serum, 1% penicillin-streptomycin, 1% insulin, and 16 μg/mL glutathione; UWB1.289 cells were cultured in RMPI1640 complete medium containing 10% fetal bovine serum and 1% penicillin-streptomycin.\n1. MDA-MB-436 or UWB1.289 cells were cultured in the aforementioned medium (culture conditions: 37° C., 5.0% CO2 in air) until they reached the logarithmic growth phase. The cells were then digested with trypsin containing 0.25% EDTA, centrifuged at 1000 rpm, and the supernatant was discarded. Cell culture medium was added, and the cell suspension was adjusted to 2×10^4/mL after counting. 135 μL of the cell suspension per well was taken and cultured in a 96-well cell culture plate for 16 hours (culture conditions: 37° C., 5.0% CO2 in air).\n2. The test compounds, stored at a concentration of 10 mM, were diluted 2.5 times with DMSO and then serially diluted in a 1:3 gradient (9 gradients). The gradient-diluted samples were further diluted 40 times with serum-free medium, and 15 μL of each was added to the 96-well cell culture plate. The positive control group received serum-free medium containing the same concentration of DMSO, and the negative control group received medium without cells. The cells were then cultured for an additional 7 days.\n3. After the culture period, the cell culture plate was placed at room temperature for 30 minutes. Then, 100 μL of CellCounting-Lite 2.0 reagent (Vazyme, #DD1101) was added to each well, mixed thoroughly, and incubated in the dark at room temperature for 10 minutes. The luminescence signal was read using a Synergy HTX multi-mode reader.\n4. Data analysis was performed using GraphPad Prism 8.0 software. The inhibition rate (%) was calculated as 100*(average luminescence signal of the positive control group−luminescence signal of the compound)/(average luminescence signal of the positive control group−average luminescence signal of the negative control group). The IC50 value was obtained by plotting the logarithm of the compound concentration against the percentage inhibition rate."}, "PARP1": {"target": "PARP1 (Homo sapiens (Human), UniProt P09874)", "sequence (P09874 whole entry)": "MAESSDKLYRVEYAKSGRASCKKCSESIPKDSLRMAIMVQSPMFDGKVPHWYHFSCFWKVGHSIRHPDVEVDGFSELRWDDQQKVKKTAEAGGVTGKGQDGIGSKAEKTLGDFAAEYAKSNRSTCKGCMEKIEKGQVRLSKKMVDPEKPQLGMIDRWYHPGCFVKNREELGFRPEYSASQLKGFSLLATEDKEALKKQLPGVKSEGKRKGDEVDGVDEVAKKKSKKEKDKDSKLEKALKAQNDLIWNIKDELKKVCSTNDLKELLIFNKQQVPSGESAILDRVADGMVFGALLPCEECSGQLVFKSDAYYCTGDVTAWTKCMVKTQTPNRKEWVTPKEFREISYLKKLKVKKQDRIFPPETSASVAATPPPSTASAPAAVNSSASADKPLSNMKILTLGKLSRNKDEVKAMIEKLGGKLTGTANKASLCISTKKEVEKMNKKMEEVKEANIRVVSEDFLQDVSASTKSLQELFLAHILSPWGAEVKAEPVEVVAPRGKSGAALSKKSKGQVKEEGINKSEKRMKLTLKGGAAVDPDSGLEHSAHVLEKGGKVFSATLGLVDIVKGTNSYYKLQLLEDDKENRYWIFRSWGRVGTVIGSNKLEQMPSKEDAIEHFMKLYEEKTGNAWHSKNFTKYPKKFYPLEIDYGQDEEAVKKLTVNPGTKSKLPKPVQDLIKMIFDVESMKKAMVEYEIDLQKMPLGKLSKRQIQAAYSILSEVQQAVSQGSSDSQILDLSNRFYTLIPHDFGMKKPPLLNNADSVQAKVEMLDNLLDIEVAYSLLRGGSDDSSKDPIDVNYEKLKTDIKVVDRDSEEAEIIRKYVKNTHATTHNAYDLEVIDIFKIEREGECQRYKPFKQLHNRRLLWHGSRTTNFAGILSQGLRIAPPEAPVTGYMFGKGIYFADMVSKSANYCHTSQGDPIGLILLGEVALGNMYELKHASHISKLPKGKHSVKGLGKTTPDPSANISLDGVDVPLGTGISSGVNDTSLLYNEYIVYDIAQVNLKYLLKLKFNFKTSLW", "assay": "PARP1 trapping assay", "format": "biochemical", "settings": "read-out: Inhibitory Effect on PARP1 Trapping IC50", "summary_of_the_method": "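PARP1 and PARP2 with GST-Tb antibody and probe incubated with serially diluted compounds for 45 min at room temperature, then NAD added for 10 min before plate reading. Percent inhibition derived from compound, blank and vehicle control readings.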"}},
  "note": "pIC50: −log10 of the molar value.",
  "data": [
    {"compound": "CNC(=O)c1ccc(N2CCN(Cc3cnc4c(C)c(C(F)(F)F)c(=O)[nH]c4c3)CC2)cn1", "note": "[Compound 1, N-methyl-5-(4-((8-methyl-6-oxo-7-(trifluoromethyl)-5,6-dihydro-1,5-naphthyridin-3-yl)methyl)piperazin-1-yl)picolinamide]", "values": [
      {"measurement": "Tumor Growth Inhibition Rate (TGI)", "setting": "[1]; 0.1 mg/kg oral once daily", "value": 89, "unit": "%"},
      {"measurement": "Tumor Growth Inhibition Rate (TGI)", "setting": "[1]; 0.3 mg/kg oral once daily", "value": 113, "unit": "%"},
      {"measurement": "Tumor Growth Inhibition Rate (TGI)", "setting": "[1]; 1.0 mg/kg oral once daily", "value": 115, "unit": "%"},
      {"measurement": "Body weight vs vehicle control group", "setting": "[1]; MDA-MB-436 model, all treatment groups", "value": "no significant difference"},
      {"measurement": "pIC50", "setting": "PARP2", "value": 6.78},
      {"measurement": "microsomal CLint at 1 µM", "setting": "[2]", "value": 0.32, "unit": "µL/min/mg"},
      {"measurement": "pIC50", "setting": "[3]", "value": 8.80},
      {"measurement": "pIC50", "setting": "[4]", "value": 9.18},
      {"measurement": "pIC50", "setting": "PARP1", "value": 8.88}
    ]}
  ]
}
